tested on: HCV Huh-luc/neo-ET replicon cells; assay: Luciferase-Based HCV Replicon Assay (EC50 (1b)); format: cell-based; conditions: Hepatitis C virus, 72 hours exposure, luciferase activity
Protocol: Luciferase-Based HCV Replicon Assay Protocol (EC50 (1b))
The cell culture component of the assay was performed essentially as described by Bartenschlager et al., Hepatology 2002, 35, 694-703, wherein exponentially growing HCV Huh-luc/neo-ET replicon cells were seeded at 6×10^3 cells/well in 96 well assay plate. 24 hours later the cells were treated with various concentrations of compound in triplicate. After 72 hours exposure to the compound, the luciferase activity in the wells was determined using Bright-Glo reagent (Promega, Madison, Wis.) with a luminometer (Wallac 1420 Multilabel HTS Counter Victor 2). The background control was replicon cells treated with 100 nM BILN-2061, an inhibitor of the HCV protease. % Inhibition was determined for each compound concentration in relation to the negative (no compound) control to calculate the EC50 (1b).

SMILES	EC50 [nM]
CS(=O)(=O)NCc1csc2c1S(=O)(=O)N=C(C1=C(O)[C@@H]3CCC[C@@H]3N(Cc3ccsc3)C1=O)N2 [Example 127, (4aR,7aS)-N-[3-(4-Hydroxy-2-oxo-1-thiophen-3-ylmethyl-2,4a,5,6,7,7a-hexahydro-1H-[1]pyrindin-3-yl)-1,1-dioxo-1,4-dihydro-1λ^6-thieno[2,3-e][1,2,4]thiadiazin-7-ylmethyl]-methanesulfonamide]	5 to 20
CS(=O)(=O)NCc1csc2c1S(=O)(=O)N=C(C1=C(O)C3C4CCCC(CC4)C3N(Cc3ccc(F)cc3)C1=O)N2 (racemic) [Example 142, (rac-di-exo)-N-{3-[3-(4-Fluoro-benzyl)-6-hydroxy-4-oxo-3-aza-tricyclo[6.3.2.0^2,7]tridec-5-en-5-yl]-1,1-dioxo-1,4-dihydro-1λ^6-thieno[2,3-e][1,2,4]thiadiazin-7-ylmethyl}-methanesulfonamide]	20 to 100
CCCC1CN(Cc2ccc(F)cc2)C(=O)C(C2=NS(=O)(=O)c3c(CNS(C)(=O)=O)csc3N2)=C1O (racemic) [Example 15, rac-N-{3-[1-(4-Fluoro-benzyl)-4-hydroxy-2-oxo-5-propyl-1,2,5,6-tetrahydro-pyridin-3-yl]-1,1-dioxo-1,4-dihydro-1λ^6-thieno[2,3-e][1,2,4]thiadiazin-7-ylmethyl}-methanesulfonamide]	100 to 1000
CC(C)CCN1C(=O)C(C2=NS(=O)(=O)c3c(CNS(C)(=O)=O)csc3N2)=C(O)[C@@H]2[C@H]3CC[C@H](C3)[C@@H]21 [Example 68, N-{3-[(1R,2S,7R,8S)-6-Hydroxy-3-(3-methyl-butyl)-4-oxo-3-aza-tricyclo[6.2.1.0^2,7]undec-5-en-5-yl]-1,1-dioxo-1,4-dihydro-1λ^6-thieno[2,3-e][1,2,4]thiadiazin-7-ylmethyl}-methanesulfonamide]	5 to 20
Cc1cc(CN2C(=O)C(C3=NS(=O)(=O)c4c(CNS(C)(=O)=O)csc4N3)=C(O)[C@@H]3[C@@H]4CC[C@@H](C4)[C@@H]32)ccc1F [Example 56, N-{3-[(1S,2S,7R,8R)-3-(4-Fluoro-3-methyl-benzyl)-6-hydroxy-4-oxo-3-aza-tricyclo[6.2.1.0^2,7]undec-5-en-5-yl]-1,1-dioxo-1,4-dihydro-1λ^6-thieno[2,3-e][1,2,4]thiadiazin-7-ylmethyl}-methanesulfonamide]	20 to 100
COc1ccc(CN2C(=O)C(C3=NS(=O)(=O)c4c(CNS(C)(=O)=O)csc4N3)=C(O)[C@@H]3[C@@H]4CC[C@@H](C4)[C@@H]32)c(OC)c1 [Example 73, N-{3-[(1S,2S,7R,8R)-3-(2,4-Dimethoxy-benzyl)-6-hydroxy-4-oxo-3-aza-tricyclo[6.2.1.0^2,7]undec-5-en-5-yl]-1,1-dioxo-1,4-dihydro-1λ^6-thieno[2,3-e][1,2,4]thiadiazin-7-ylmethyl}-methanesulfonamide]	> 1000
CS(=O)(=O)NCc1csc2c1S(=O)(=O)N=C(C1=C(O)C3(CC3)CN(Cc3ccc(F)cc3)C1=O)N2 [Example 11, N-{3-[5-(4-Fluoro-benzyl)-8-hydroxy-6-oxo-5-aza-spiro[2.5]oct-7-en-7-yl]-1,1-dioxo-1,4-dihydro-1λ^6-thieno[2,3-e][1,2,4]thiadiazin-7-ylmethyl}-methanesulfonamide]	> 1000
COc1cc(CN2C(=O)C(C3=NS(=O)(=O)c4c(CNS(C)(=O)=O)csc4N3)=C(O)[C@@H]3C4CCC(CC4)[C@@H]32)ccc1F [Example 36, N-{3-[(2S,7R)-3-(4-Fluoro-3-methoxy-benzyl)-6-hydroxy-4-oxo-3-aza-tricyclo[6.2.2.0^2,7]dodec-5-en-5-yl]-1,1-dioxo-1,4-dihydro-1λ^6-thieno[2,3-e][1,2,4]thiadiazin-7-ylmethyl}-methanesulfonamide]	≤ 5
CS(=O)(=O)NCc1csc2c1S(=O)(=O)N=C(C1=C(O)[C@@H]3[C@@H]4CC[C@@H](C4)[C@@H]3NC1=O)N2 [Example 81, N-[3-((1S,2S,7R,8R)-6-Hydroxy-4-oxo-3-aza-tricyclo[6.2.1.0^2,7]undec-5-en-5-yl)-1,1-dioxo-1,4-dihydro-1λ^6-thieno[2,3-e][1,2,4]thiadiazin-7-ylmethyl]-methanesulfonamide]	> 1000
CS(=O)(=O)NCc1csc2c1S(=O)(=O)N=C(C1=C(O)[C@@H]3[C@@H]4CC[C@@H](C4)[C@@H]3N(Cc3cc(F)c(F)c(F)c3)C1=O)N2 [Example 57, N-{3-[(1S,2S,7R,8R)-6-Hydroxy-4-oxo-3-(3,4,5-trifluoro-benzyl)-3-aza-tricyclo[6.2.1.0^2,7]undec-5-en-5-yl]-1,1-dioxo-1,4-dihydro-1λ^6-thieno[2,3-e][1,2,4]thiadiazin-7-ylmethyl}-methanesulfonamide]	5 to 20
COc1cc(CN2C(=O)C(C3=NS(=O)(=O)c4c(CNS(C)(=O)=O)csc4N3)=C(O)[C@@H]3[C@H]4CC[C@H](C4)[C@@H]32)ccc1F [Example 38, N-{3-[(1R,2S,7R,8S)-3-(4-Fluoro-3-methoxy-benzyl)-6-hydroxy-4-oxo-3-aza-tricyclo[6.2.1.0^2,7]undec-5-en-5-yl]-1,1-dioxo-1,4-dihydro-1λ^6-thieno[2,3-e][1,2,4]thiadiazin-7-ylmethyl}-methanesulfonamide]	5 to 20
CS(=O)(=O)NCc1csc2c1S(=O)(=O)N=C(C1=C(O)C3CCCCC3N(Cc3ccc(F)cc3F)C1=O)N2 (racemic) [Example 118, (rac-cis)-N-{3-[1-(2,4-Difluoro-benzyl)-4-hydroxy-2-oxo-1,2,4a,5,6,7,8,8a-octahydro-quinolin-3-yl]-1,1-dioxo-1,4-dihydro-1λ^6-thieno[2,3-e][1,2,4]thiadiazin-7-ylmethyl}-methanesulfonamide]	100 to 1000
CS(=O)(=O)NCc1csc2c1S(=O)(=O)N=C(C1=C(O)C3C4CCC(C5CC54)C3N(Cc3ccc(F)cc3)C1=O)N2 (racemic) [Example 22, (rac-di-endo)-N-{3-[3-(4-Fluoro-benzyl)-6-hydroxy-4-oxo-3-aza-tetracyclo[6.3.2.0^2,7.0^9,11]tridec-5-en-5-yl]-1,1-dioxo-1,4-dihydro-1λ^6-thieno[2,3-e][1,2,4]thiadiazin-7-ylmethyl}-methanesulfonamide]	≤ 5
CS(=O)(=O)NCc1csc2c1S(=O)(=O)N=C(C1=C(O)C3CCCCC3N(Cc3ccc(F)c(F)c3)C1=O)N2 (racemic) [Example 134, (rac-cis)-N-{3-[1-(3,4-Difluoro-benzyl)-4-hydroxy-2-oxo-1,2,4a,5,6,7,8,8a-octahydro-quinolin-3-yl]-1,1-dioxo-1,4-dihydro-1λ^6-thieno[2,3-e][1,2,4]thiadiazin-7-ylmethyl}-methanesulfonamide]	> 1000
COc1ccc(CN2C(=O)C(C3=NS(=O)(=O)c4c(CNS(C)(=O)=O)csc4N3)=C(O)C3CCCCCC32)c(OC)c1 (racemic) [Example 79, (rac-cis)-N-{3-[1-(2,4-Dimethoxy-benzyl)-4-hydroxy-2-oxo-2,4a,5,6,7,8,9,9a-octahydro-1H-cyclohepta[b]pyridin-3-yl]-1,1-dioxo-1,4-dihydro-1λ^6-thieno[2,3-e][1,2,4]thiadiazin-7-ylmethyl}-methanesulfonamide]	> 1000
CS(=O)(=O)NCc1csc2c1S(=O)(=O)N=C(C1=C(O)[C@@H]3C4CCC(CC4)[C@@H]3N(Cc3ccc(F)c(F)c3)C1=O)N2 [Example 92, N-{3-[(2S,7R)-3-(3,4-Difluoro-benzyl)-6-hydroxy-4-oxo-3-aza-tricyclo[6.2.2.0^2,7]dodec-5-en-5-yl]-1,1-dioxo-1,4-dihydro-1λ^6-thieno[2,3-e][1,2,4]thiadiazin-7-ylmethyl}-methanesulfonamide]	≤ 5
O=C1C(C2=NS(=O)(=O)c3c(CNS(=O)(=O)C4CC4)csc3N2)=C(O)[C@@H]2[C@H]3CC[C@H](C3)[C@@H]2N1Cc1ccc(F)cc1 [Example 33, Cyclopropanesulfonic acid {3-[(1R,2S,7R,8S)-3-(4-fluoro-benzyl)-6-hydroxy-4-oxo-3-aza-tricyclo[6.2.1.0^2,7]undec-5-en-5-yl]-1,1-dioxo-1,4-dihydro-1λ^6-thieno[2,3-e][1,2,4]thiadiazin-7-ylmethyl}-amide]	5 to 20
COc1ccc(CN2C(=O)C(C3=NS(=O)(=O)c4c(CNS(C)(=O)=O)csc4N3)=C(O)[C@@H]3[C@H]4CC[C@H](C4)[C@@H]32)c(OC)c1 [Example 72, N-{3-[(1R,2S,7R,8S)-3-(2,4-Dimethoxy-benzyl)-6-hydroxy-4-oxo-3-aza-tricyclo[6.2.1.0^2,7]undec-5-en-5-yl]-1,1-dioxo-1,4-dihydro-1λ^6-thieno[2,3-e][1,2,4]thiadiazin-7-ylmethyl}-methanesulfonamide]	> 1000
CS(=O)(=O)NCc1csc2c1S(=O)(=O)N=C(C1=C(O)C3CCCCCC3N(Cc3ccc(F)cc3F)C1=O)N2 (racemic) [Example 122, (rac-cis)-N-{3-[1-(2,4-Difluoro-benzyl)-4-hydroxy-2-oxo-2,4a,5,6,7,8,9,9a-octahydro-1H-cyclohepta[b]pyridin-3-yl]-1,1-dioxo-1,4-dihydro-1λ^6-thieno[2,3-e][1,2,4]thiadiazin-7-ylmethyl}-methanesulfonamide]	> 1000
CS(=O)(=O)NCc1csc2c1S(=O)(=O)N=C(C1=C(O)C3C4C=CC(C4)C3N(Cc3ccsc3)C1=O)N2 (racemic) [Example 64, (rac-di-exo)-N-[3-(6-Hydroxy-4-oxo-3-thiophen-3-ylmethyl-3-aza-tricyclo[6.2.1.0^2,7]undeca-5,9-dien-5-yl)-1,1-dioxo-1,4-dihydro-1λ^6-thieno[2,3-e][1,2,4]thiadiazin-7-ylmethyl]-methanesulfonamide]	≤ 5
CS(=O)(=O)NCc1csc2c1S(=O)(=O)N=C(C1=C(O)C3C4CCC(O4)C3N(Cc3ccccc3)C1=O)N2 (racemic) [Example 45, (rac-di-exo)-N-[3-(3-Benzyl-6-hydroxy-4-oxo-11-oxa-3-aza-tricyclo[6.2.1.0^2,7]undec-5-en-5-yl)-1,1-dioxo-1,4-dihydro-1λ^6-thieno[2,3-e][1,2,4]thiadiazin-7-ylmethyl]-methanesulfonamide]	20 to 100
